Our source for the ED50 values is US5234917A, “Substituted 5-(alkyl)carboxamide imidazoles” (priority 1990, dated 1993).

The test system of the assay is pressor response to exogenous angiotensin II. Put plainly: Inhibition of Pressor Response to Angiotensin II in Conscious Rats. Format: in vivo. To be noted: Rattus norvegicus, mean arterial pressure, 250 mg/kg angiotensin II i.v. as printed, compounds given intravenously or orally at 3 to 300 mg/kg (route not given), read-out: IC50 (dose of compound needed to produce 50% inhibition of the control pressor response to angiotensin II). How it is done: Angiotensin II antagonist activity of the compounds of Formula (I) is assessed by in vitro and in vivo methods. In vitro antagonist activity is determined by the ability of the compounds to compete with ^125 I-angiotensin II for binding to vascular angiotensin II receptors and by their ability to antagonize the contractile response to angiotensin II in the isolated rabbit aorta. In vivo activity is evaluated by the efficacy of the compounds to inhibit- the pressor response to exogenous angiotensin II in conscious rats and to lower blood pressure in a rat model of renin dependent hypertension.
Rats are prepared with indwelling femoral arterial and venous catheters and a stomach tube (Gellai et al., Kidney Int. 15:419, 1979). Two to three days following surgery the rats are placed in a restrainer and blood pressure is continuously monitored from the arterial catheter with a pressure transducer and recorded on a polygraph. The change in mean arterial pressure in response to intravenous injections of […] angiotensin II is compared at various time points prior to and following the administration of the compounds intravenously or orally at doses of 3 to 300 mg/kg. The dose of compound needed to produce 50% inhibition of the control response to angiotensin II (IC50) is used to estimate the potency of the compounds.

SMILES strings stand for the structures.

In the case of `CCCCc1ncc(CC(=O)N[C@@H](Cc2ccccc2)C(=O)O)n1Cc1ccccc1Cl` [Example 14, N-[{2-n-Butyl-1-(2-chlorophenyl)methyl-1H-imidazol-5-yl}methylcarbonyl]-L-phenylalanine], the ED50 came out at 16 mg/kg.
